Experimental findings from patent US20250368608A1, “SELECTIVE HDAC6 INHIBITOR” (ROYAL COLLEGE OF SURGEONS IN IRELAND, priority 2021, published 2025) are described below.

For one experiment, the system named is JJN3 cell line. In words: Apoptosis assay using JJN3 cell line (annexin V/PI). The class given is cell-based. The conditions noted are these: Homo sapiens, JJN-3; JJN3 cell line, 24 h of treatment. As to the method:
Apoptosis was assessed by Annexin V/propidium iodide (Biolegend, 640906, Sigma P4170) staining using LSRII Biosciences, Facscanto. Cell viability was detected by CellTiter-Glo® (My Bio, G3582) according to the manufacture's protocol. Mitochondrial membrane potential was measured by adding Tetramethylrhodamine, ethyl ester (TMRE) (Biosciences, T669) at 20 nM for 30 minutes at 37° C. and assessed by flow cytometry with FACS CANTO II. […]
A word on the IC50: it is the concentration that gives 50% inhibition. Consider `O=C(CSC1=N[C@@H]2CCCC[C@H]2N1)N1CCOCC1` (racemic) [TTC-01, (±)-trans-2-((2-morpholino-2-oxoethyl)thio)-3a,4,5,6,7,7a-hexahydro-1H-benzo[d]imidazol-3-ium chloride], for which the IC50 was more than 10 µM.

As to `O=C(CSC1=N[C@@H]2CCCC[C@H]2N1)N1CCCCC1` (racemic) [TTC-03, (±)-trans-2-((2-oxo-2-(piperidin-1-yl)ethyl)thio)-3a,4,5,6,7,7a-hexahydro-1H-benzo[d]imidazol-3-ium chloride], the IC50 was more than 10 µM.

As for `CCN(CC)C(=O)CSC1=N[C@@H]2CCCC[C@H]2N1` (racemic) [TTC-04, (±)-trans-2-((2-(diethylamino)-2-oxoethyl)thio)-3a,4,5,6,7,7a-hexahydro-1H-benzo[d]imidazol-3-ium chloride], the IC50 is more than 10 µM.

Compound `O=C(CSC1=N[C@@H]2CCCC[C@H]2N1)N1CCSCC1` (racemic) [TTC-05, (±)-trans-2-((2-oxo-2-thiomorpholinoethyl)thio)-3a,4,5,6,7,7a-hexahydro-1H-benzo[d]imidazol-3-ium chloride] showed a half-maximal inhibitory concentration (IC50) of less than 10 µM.

Compound `CS(=O)(=O)N1CCN(C(=O)CSC2=N[C@@H]3CCCC[C@H]3N2)CC1` (racemic) [TTC-06, (±)-trans-2-((2-(4-(methylsulfonyl)piperazin-1-yl)-2-oxoethyl)thio)-3a,4,5,6,7,7a-hexahydro-1H-benzo[d]imidazol-3-ium chloride] came in with a 50% inhibitory concentration (IC50) of more than 10 µM.

`O=C(CSC1=N[C@@H]2CCCC[C@H]2N1)N1CCN(c2ccccc2)CC1` (racemic) [TTC-07, (±)-trans-2-((2-oxo-2-(4-phenylpiperazin-1-yl)ethyl)thio)-3a,4,5,6,7,7a-hexahydro-1H-benzo[d]imidazol-3-ium chloride] displayed an IC50 of more than 10 µM.

In turn, `CC(C)(C)OC(=O)N1CCN(C(=O)CSC2=N[C@@H]3CCCC[C@H]3N2)CC1` (racemic) [TTC-08, (±)-trans-2-((2-(4-(tert-butoxycarbonyl)piperazin-1-yl)-2-oxoethyl)thio)-3a,4,5,6,7,7a-hexahydro-1H-benzo[d]imidazol-3-ium chloride] showed a concentration for half-maximal inhibition (IC50) of more than 10 µM.

Turning to `O=C(CSC1=N[C@@H]2CCCC[C@H]2N1)N1CCC(O)CC1` (racemic) [TTC-15, (±)-trans-2-((2-(4-hydroxypiperidin-1-yl)-2-oxoethyl)thio)-3a,4,5,6,7,7a-hexahydro-1H-benzo[d]imidazol-3-ium chloride], the IC50 is more than 10 µM.

In the case of `O=C(O)C1CCN(C(=O)CSC2=N[C@@H]3CCCC[C@H]3N2)CC1` (racemic) [TTC-16, (±)-trans-2-((2-(4-carboxypiperidin-1-yl)-2-oxoethyl)thio)-3a,4,5,6,7,7a-hexahydro-1H-benzo[d]imidazol-3-ium chloride], the IC50 is more than 10 µM.

In turn, `O=C1CN(C(=O)CSC2=N[C@@H]3CCCC[C@H]3N2)CCN1` (racemic) [TTC-17, (±)-trans-2-((2-oxo-2-(3-oxopiperazin-1-yl)ethyl)thio)-3a,4,5,6,7,7a-hexahydro-1H-benzo[d]imidazol-3-ium chloride] yielded an IC50 of more than 10 µM.

In turn, `O=C(CSC1=N[C@@H]2CCCC[C@H]2N1)Nc1ccccc1` (racemic) [TTC-18, (±)-trans-2-((2-oxo-2-(phenylamino)ethyl)thio)-3a,4,5,6,7,7a-hexahydro-1H-benzo[d]imidazol-3-ium chloride] came in with an IC50 of more than 10 µM.

Regarding `CCC1CCN(C(=O)CSC2=N[C@@H]3CCCC[C@H]3N2)CC1` (racemic) [TTC-28, (±)-trans-2-((2-(4-ethylpiperidin-1-yl)-2-oxoethyl)thio)-3a,4,5,6,7,7a-hexahydro-1H-benzo[d]imidazol-3-ium chloride], the IC50 is more than 10 µM.

The compound `CCCC1CCN(C(=O)CSC2=N[C@@H]3CCCC[C@H]3N2)CC1` (racemic) [TTC-29, (±)-trans-2-((2-oxo-2-(4-propylpiperidin-1-yl)ethyl)thio)-3a,4,5,6,7,7a-hexahydro-1H-benzo[d]imidazol-3-ium chloride] showed an IC50 of less than 10 µM.

For the compound `CC(C)C1CCN(C(=O)CSC2=N[C@@H]3CCCC[C@H]3N2)CC1` (racemic) [TTC-30, (±)-trans-2-((2-(4-isopropylpiperidin-1-yl)-2-oxoethyl)thio)-3a,4,5,6,7,7a-hexahydro-1H-benzo[d]imidazol-3-ium chloride], the IC50 is more than 10 µM.

The compound `CC(C)(C)C1CCN(C(=O)CSC2=N[C@@H]3CCCC[C@H]3N2)CC1` (racemic) [TTC-31, (±)-trans-2-((2-(4-(tert-butyl)piperidin-1-yl)-2-oxoethyl)thio)-3a,4,5,6,7,7a-hexahydro-1H-benzo[d]imidazol-3-ium chloride] displayed an IC50 of less than 10 µM.

Compound `O=C(CSC1=N[C@@H]2CCCC[C@H]2N1)N1CCC(C(F)(F)F)CC1` (racemic) [TTC-32, (±)-trans-2-((2-oxo-2-(4-(trifluoromethyl)piperidin-1-yl)ethyl)thio)-3a,4,5,6,7,7a-hexahydro-1H-benzo[d]imidazol-3-ium chloride] registered an IC50 of less than 10 µM.

With `O=C(CSC1=N[C@@H]2CCCC[C@H]2N1)N1CCC(c2ccccc2)CC1` (racemic) [TTC-33, (±)-trans-2-((2-oxo-2-(4-phenylpiperidin-1-yl)ethyl)thio)-3a,4,5,6,7,7a-hexahydro-1H-benzo[d]imidazol-3-ium chloride], the IC50 was more than 10 µM.

`CC(=O)NCC1CCN(C(=O)CSC2=N[C@@H]3CCCC[C@H]3N2)CC1` (racemic) [TTC-35, (±)-trans-2-((2-(4-(acetamidomethyl)piperidin-1-yl)-2-oxoethyl)thio)-3a,4,5,6,7,7a-hexahydro-1H-benzo[d]imidazol-3-ium chloride] showed an IC50 of less than 10 µM.

Consider `Cc1ccccc1N1CCN(C(=O)CSC2=N[C@@H]3CCCC[C@H]3N2)CC1` (racemic) [TTC-36, (±)-trans-2-((2-oxo-2-(4-(o-tolyl)piperazin-1-yl)ethyl)thio)-3a,4,5,6,7,7a-hexahydro-1H-benzo[d]imidazol-3-ium chloride], for which the IC50 is more than 10 µM.

Take `Cc1ccc(N2CCN(C(=O)CSC3=N[C@@H]4CCCC[C@H]4N3)CC2)cc1` (racemic) [TTC-38, (±)-trans-2-((2-oxo-2-(4-(p-tolyl)piperazin-1-yl)ethyl)thio)-3a,4,5,6,7,7a-hexahydro-1H-benzo[d]imidazol-3-ium chloride]: the IC50 was more than 10 µM.

`CC(=O)N1CCN(C(=O)CSC2=N[C@@H]3CCCC[C@H]3N2)CC1` (racemic) [TTC-40, (±)-trans-2-((-(4-acetylpiperazin-1-yl)-2-oxoethyl)thio)-3a,4,5,6,7,7a-hexahydro-1H-benzo[d]imidazol-3-ium chloride] displayed an IC50 of more than 10 µM.

Take `O=C(CSC1=N[C@@H]2CCCC[C@H]2N1)N1CCN(C(=O)c2ccccc2)CC1` (racemic) [TTC-41, (±)-trans-2-((2-(4-benzoylpiperazin-1-yl)-2-oxoethyl)thio)-3a,4,5,6,7,7a-hexahydro-1H-benzo[d]imidazol-3-ium chloride]: the IC50 is more than 10 µM.

In turn, `O=C(CSC1=N[C@@H]2CCCC[C@@H]2N1)N1CCOCC1` [TTC-02, cis-2-((2-morpholino-2-oxoethyl)thio)-3a,4,5,6,7,7a-hexahydro-1H-benzo[d]imidazol-3-ium chloride] yielded an IC50 of more than 10 µM.

Still in this experiment, the particulars now being: JJN3 cells, 24 hr treatment.
Regarding `O=C(CSC1=N[C@@H]2CCCC[C@H]2N1)N1CCOCC1` (racemic) [TTC-01, (±)-trans-2-((2-morpholino-2-oxoethyl)thio)-3a,4,5,6,7,7a-hexahydro-1H-benzo[d]imidazol-3-ium chloride], the “cell death by annexin V/PI” value is given as “induces cell death”.

Take `O=C(CSC1=N[C@@H]2CCCC[C@@H]2N1)N1CCOCC1` [TTC-02, cis-2-((2-morpholino-2-oxoethyl)thio)-3a,4,5,6,7,7a-hexahydro-1H-benzo[d]imidazol-3-ium chloride]: the “cell death by annexin V/PI” value is listed as “does not induce cell death”.
